Source: US20140309229A1, “METHODS FOR SELECTING AND TREATING CANCER IN PATIENTS WITH IGF-1R/IR INHIBITORS” (priority 2011, published 2014)

Tests used:
[1] = system: panel of 60 CRC cell lines; assay: MTS proliferation assay, whole panel; type: cell-based, human; conditions: read-out: IC50, range of sensitivity across the panel
Method: (§1) Cell lines and in vitro cytotoxicity assay. Cells were maintained at 37° C. under standard cell culture conditions. Cells were plated at an optimized density for each cell line per well in 96-well microtiter FALCON® plates, incubated overnight, and then exposed to a serial dilution of drug. […] The results were expressed as an IC50, which is the drug concentration required to inhibit cell proliferation to 50% of that of untreated control cells. The mean IC50 and standard deviation (SD) from multiple tests for each cell line were calculated.
(§2) In vitro Cellular Proliferation Assays.

[2] = patients at minimum efficacious dose, phase I solid tumor trials; cited from earlier work
SNU-407 = assay: MTS proliferation assay; type: cell-based, human
Method: as §1, §2

LS-180 = assay: MTS proliferation assay; type: cell-based, human
Method: as §1, §2

DIFI = assay: MTS proliferation assay; type: cell-based, human
Method: as §1, §2

Method for pIGF-1R/pIR and pAKT: Cells were serum-starved overnight, then either stimulated with 50 ng/ml IGF-1, IGF-2 or insulin for 10 minutes, or unstimulated. Cell lysates were subjected to MSD for measuring both total and phosphorylated IGF-1R and AKT. The phospho-protein values were normalized to the corresponding total protein levels (e.g., pIGF-1R/IGF-1R). The ligand-stimulated activation of IGF-1R or AKT is presented as the ratio of the pIGF-1R/IGF-1R or pAKT/AKT value in IGF-1, IGF-2 or insulin-stimulated cells vs. the value in the non-stimulated cells. […] 20 ug of total protein from cell lysates were subjected to Western blot analysis.
Western Blots and MesoScale Discovery (MSD) Multiplex Plate Based Assays. […] Antibodies for pIGF-IR/pIR, pAkt, p-p44/42 MAPK and IRS2 for Western blot and MSD were purchased from Cell Signaling Technology and Santa Cruz Biotechnology (see figure legends) except for β-ACTIN® sourced from Millipore. Protein signals from Western blots were visualized using ODYSSEY® Imaging (Li-Cor Biosciences). Measurement of phospho- and total IGF-1R, IR, IRS-1, Akt and MAPK was also determined by commercially available multiplex plate based assays (MSD, Gaithersburg Md.). […] Measurement of IRS2 was determined using customized assays utilizing MSD technology.
Cell lysates were subsequently subjected to Western blot analysis and evaluated for pIGF-1R/pIR and pAKT.

C[C@@]1(C(=O)Nc2ccc(F)nc2)CCCN1c1nc(Nc2cc(C3CC3)n[nH]2)c2cccn2n1 [BMS-754807, (2S)-1-(4-((5-cyclopropyl-1H-pyrazol-3-yl)amino)pyrrolo[2,1-f][1,2,4]triazin-2-yl)-N-(6-fluoro-3-pyridinyl)-2-methyl-2-pyrrolidinecarboxamide]
pIGF-1R/pIR and pAKT levels (pIGF-1R/pIR and pAKT): inhibited by BMS-754807 treatment in a dose-dependent manner | IC50 [1]: 3 to 5500 nM | average plasma concentration at steady state [2]: > 50 nmol/L | IC50 (SNU-407; Homo sapiens, SNU-407, 72 h): 13 nM | Sensitivity Classes (SNU-407; SNU-407): S (“S” refers Sensitive) | IC50 (LS-180; Homo sapiens, LS180, 72 h): 629 nM | Sensitivity to BMS-754807 (LS-180; LS180, preliminary panel of 45 CRC cell lines): Resistant (resistant cell lines had IC50 values of >50 nmol/L) | Sensitivity Classes (LS-180; LS-180): R (“R” refers Resistant) | Sensitivity Classes (DIFI; DIFI): S (“S” refers Sensitive) | Sensitivity to BMS-754807 (DIFI; DIFI, preliminary panel of 45 CRC cell lines): Sensitive (a sensitive cell line was classified as one with an IC50 of ≦50 nmol/L) | IC50 (DIFI; Homo sapiens, DiFi, 72 h): 12 nM
